Where two headings read alike, the source gives them in different places.
Molecular target: T1, human M2 receptor (Homo sapiens, UniProt P08172)
T1 sequence (P08172 1-466): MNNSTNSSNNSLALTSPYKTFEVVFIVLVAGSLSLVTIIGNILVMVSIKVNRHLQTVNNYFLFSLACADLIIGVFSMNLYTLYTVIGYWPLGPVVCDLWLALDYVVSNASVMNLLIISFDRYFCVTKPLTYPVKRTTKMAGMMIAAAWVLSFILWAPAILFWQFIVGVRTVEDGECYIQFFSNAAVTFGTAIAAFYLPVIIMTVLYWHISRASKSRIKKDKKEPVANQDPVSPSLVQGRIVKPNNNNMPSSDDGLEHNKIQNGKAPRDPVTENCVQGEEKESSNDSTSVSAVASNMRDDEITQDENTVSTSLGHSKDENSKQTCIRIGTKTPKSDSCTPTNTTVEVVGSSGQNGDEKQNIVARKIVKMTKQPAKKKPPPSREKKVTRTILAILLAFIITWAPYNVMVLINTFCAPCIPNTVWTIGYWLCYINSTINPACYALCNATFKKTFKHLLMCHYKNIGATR

[1] = Receptor activity EC50, allosteric potency at EC20 acetylcholine, M2-GIRK1/4 reporter cells, in some cases mean of two or more determinations
[2] = read-out: Efficiency, boosting of the acetylcholine effect at EC20 acetylcholine concentration, M2-GIRK1/4 reporter cells
[3] = Receptor activity EC50, M2-GIRK1/4 activation test, acetylcholine at EC20, allosteric potency, in some cases mean values from two or more determinations

Row | Compound | Emax (read-out: Efficiency) | EC50 [1] | Emax [2] | EC50 [3]
1 | CC(NC(=O)c1cn(-c2c(F)cc(F)cc2F)c2nc(N3C[C@@H](O)[C@H](O)C3)ccc2c1=O)C(F)(F)C(F)(F)F (mixture of isomers) [Example 549, 7-[(3R,4R)-3,4-Dihydroxypyrrolidin-1-yl]-4-oxo-N-[3,3,4,4,4-pentafluorobutan-2-yl]-1-(2,4,6-trifluorophenyl)-1,4-dihydro-1,8-naphthyridine-3-carboxamide] | 100% | – | – | –
2 | CC1CC(=O)N(c2ccc3c(=O)c(C(=O)N[C@@H](C4CC4)C(F)(F)F)cn(-c4c(F)cc(F)cc4Cl)c3n2)C1 (mixture of isomers) [Example 429, 1-(2-Chloro-4,6-difluorophenyl)-N-[(1 S)-1-cyclopropyl-2,2,2-trifluoroethyl]-7-[4-methyl-2-oxopyrrolidin-1-yl]-4-oxo-1,4-dihydro-1,8-naphthyridine-3-carboxamide] | – | 16 nM | 99% | –
3 | CC[C@H](NC(=O)c1cn(-c2c(F)cc(F)cc2F)c2nc(N3CC4CC4(O)C3)ccc2c1=O)C(F)(F)F (mixture of isomers) [Example 416, 7-[1-Hydroxy-3-azabicyclo[3.1.0]hex-3-yl]-4-oxo-N-[(2S)-1,1,1-trifluorobutan-2-yl]-1-(2,4,6-trifluorophenyl)-1,4-dihydro-1,8-naphthyridine-3-carboxamide] | 92% | 8 nM | – | –
4 | O=C(N[C@@H](C1CC1)C(F)(F)F)c1cn(-c2c(F)cc(F)cc2F)c2nc(N3CCC[C@H]3CO)ccc2c1=O [Example 660, N-[(1S)-1-Cyclopropyl-2,2,2-trifluoroethyl]-7-[(2S)-2-(hydroxymethyl)pyrrolidin-1-yl]-4-oxo-1-(2,4,6-trifluorophenyl)-1,4-dihydro-1,8-naphthyridine-3-carboxamide] | – | 102 nM | 84.5% | –
5 | C[C@H](NC(=O)c1cn(-c2c(F)cc(F)cc2F)c2nc(N3CC4CC4(O)C3)ccc2c1=O)C(F)(F)F (single isomer, unassigned) [Example 317] | – | – | – | 26 nM
6 | COCC(C)(NC(=O)c1cn(-c2ccc(F)cc2F)c2nc(N3C[C@@H](O)CC3=O)ccc2c1=O)C(F)(F)F (stereo partly drawn) [Example 236, 1-(2,4-Difluorophenyl)-7-[(4S)-4-hydroxy-2-oxopyrrolidin-1-yl]-4-oxo-N-[1,1,1-trifluoro-3-methoxy-2-methylpropan-2-yl]-1,4-dihydro-1,8-naphthyridine-3-carboxamide] | – | – | – | 860 nM
7 | O=C(NC12CC3CC(CC(C3)C1)C2)c1cn(-c2ccc(F)cc2F)c2nc(N3CCS(=O)(=O)C3)ccc2c1=O [Example 130, 1-(2,4-Difluorophenyl)-7-(1,1-dioxido-1,3-thiazolidin-3-yl)-4-oxo-N-(tricyclo[3.3.1.1^3,7]dec-1-yl)-1,4-dihydro-1,8-naphthyridine-3-carboxamide] | – | – | – | 113 nM
8 | CC(NC(=O)c1cn(-c2c(F)cc(F)cc2F)c2nc(N3CCNC3=O)ccc2c1=O)C(F)(F)C(F)(F)F (racemic) [Example 540, 4-Oxo-7-(2-oxoimidazolidin-1-yl)-N-[3,3,4,4,4-pentafluorobutan-2-yl]-1-(2,4,6-trifluorophenyl)-1,4-dihydro-1,8-naphthyridine-3-carboxamide] | – | 9 nM | 90% | –
9 | O=C(N[C@@H](C1CC1)C(F)(F)F)c1cn(-c2c(F)cc(F)cc2F)c2nc(N3CCC(O)(CO)CC3)ccc2c1=O [Example 663, N-[(1 S)-1-Cyclopropyl-2,2,2-trifluoroethyl]-7-[4-hydroxy-4-(hydroxymethyl)piperidin-1-yl]-4-oxo-1-(2,4,6-trifluorophenyl)-1,4-dihydro-1,8-naphthyridine-3-carboxamide] | – | 30 nM | 90.5% | –
10 | CN(CCF)c1ccc2c(=O)c(C(=O)NC34CCC(F)(CC3)CC4)cn(-c3ccc(F)cc3F)c2n1 [Example 110, 1-(2,4-Difluorophenyl)-N-(4-fluorobicyclo[2.2.2]oct-1-yl)-7-[(2-fluoroethyl)(methyl)amino]-4-oxo-1,4-dihydro-1,8-naphthyridine-3-carboxamide] | – | – | – | 62 nM
11 | CC(C)(C)NC(=O)c1cn(-c2c(F)cc(F)cc2F)c2nc(N3C[C@@H](O)[C@H](O)C3)ccc2c1=O [Example 479, N-tert-Butyl-7-[(3R,4R)-3,4-dihydroxypyrrolidin-1-yl]-4-oxo-1-(2,4,6-trifluorophenyl)-1,4-dihydro-1,8-naphthyridine-3-carboxamide] | – | 38 nM | 100% | –
12 | CO[C@@H]1CN(c2ccc3c(=O)c(C(=O)N[C@@H](C4CC4)C(F)(F)F)cn(-c4c(F)cc(F)cc4F)c3n2)C[C@H]1O (single isomer, unassigned) [Example 583] | – | 19 nM | 100% | –
13 | CCC1CCN(c2ccc3c(=O)c(C(=O)N[C@@H](C4CC4)C(F)(F)F)cn(-c4c(F)cc(F)cc4F)c3n2)C(=O)N1 (single isomer, unassigned) [Example 447, N-[(1 S)-1-Cyclopropyl-2,2,2-trifluoroethyl]-7-[4-ethyl-2-oxotetrahydropyrimidin-1(2H)-yl]-4-oxo-1-(2,4,6-trifluorophenyl)-1,4-dihydro-1,8-naphthyridine-3-carboxamide] | – | 24 nM | 93% | –
14 | O=C(Nc1c(Cl)cccc1Cl)c1cn(-c2c(F)cc(F)cc2F)c2nc(N3CCNC3=O)ccc2c1=O [Example 613, N-(2,6-Dichlorophenyl)-4-oxo-7-(2-oxoimidazolidin-1-yl)-1-(2,4,6-trifluorophenyl)-1,4-dihydro-1,8-naphthyridine-3-carboxamide] | – | 33 nM | 95.5% | –
15 | O=C(N[C@H](C1CC1)C(F)(F)F)c1cn(-c2c(Cl)cc(F)cc2Cl)c2nc(N3C[C@@H](O)CC3=O)ccc2c1=O [Example 387, N-[(1R)-1-Cyclopropyl-2,2,2-trifluoroethyl]-1-(2,6-dichloro-4-fluorophenyl)-7-[(4S)-4-hydroxy-2-oxopyrrolidin-1-yl]-4-oxo-1,4-dihydro-1,8-naphthyridine-3-carboxamide] | – | – | – | 42 nM
16 | CC(C)CC(NC(=O)c1cn(-c2ccc(F)cc2F)c2nc(N3CCS(=O)(=O)C3)ccc2c1=O)C(F)(F)F (centres unmarked) [Example 78, 1-(2,4-Difluorophenyl)-7-(1,1-dioxido-1,3-thiazolidin-3-yl)-4-oxo-N-[1,1-trifluoro-4-methylpentan-2-yl]-1,4-dihydro-1,8-naphthyridine-3-carboxamide] | – | – | – | 79 nM
17 | O=C(N[C@@H](C1CC1)C(F)(F)F)c1cn(-c2c(F)cc(F)cc2F)c2nc(N3CC(CO)OC3=O)ccc2c1=O (mixture of isomers) [Example 659, N-[(1S)-1-Cyclopropyl-2,2,2-trifluoroethyl]-7-[5-(hydroxymethyl)-2-oxo-1,3-oxazolidin-3-yl]-4-oxo-1-(2,4,6-trifluorophenyl)-1,4-dihydro-1,8-naphthyridine-3-carboxamide] | – | 81 nM | 98% | –
18 | O=C(N[C@H](c1ccccc1Cl)C(F)(F)F)c1cn(-c2ccc(F)cc2F)c2nc(N3CCCC(O)C3=O)ccc2c1=O (single isomer, unassigned) [Example 209] | – | – | – | 163 nM
19 | CNc1ccc2c(=O)c(C(=O)NC34CC5CC(C3)CC(C(F)(F)F)(C5)C4)cn(-c3ccc(F)cc3F)c2n1 [Example 160, 1-(2,4-Difluorophenyl)-7-(methylamino)-4-oxo-N-[3-(trifluoromethyl)tricyclo[3.3.1.1^3,7]dec-1-yl]-1,4-dihydro-1,8-naphthyridine-3-carboxamide] | – | – | – | 85 nM
20 | COC(=O)N1CCN(c2ccc3c(=O)c(C(=O)NC(C)(C)CC(F)(F)F)cn(-c4c(F)cc(F)cc4F)c3n2)CC1 [Example 575, Methyl 4-{5-oxo-6-[(4,4,4-trifluoro-2-methylbutan-2-yl)carbamoyl]-8-(2,4,6-trifluorophenyl)-5,8-dihydro-1,8-naphthyridin-2-yl}piperazine-1-carboxylate] | – | 13 nM | 96% | –
21 | CC(NC(=O)c1cn(-c2c(F)cc(F)cc2F)c2nc(N3C[C@@H](C)NC3=O)ccc2c1=O)C(F)(F)C(F)(F)F (single isomer, unassigned) [Example 459] | – | 4 nM | 95% | –
22 | O=C(NC12CC3CC(CC(C3)C1)C2)c1cn(-c2ccc(F)cc2F)c2nc(N3CCOCC3=O)ccc2c1=O [Example 172] | – | – | – | 83 nM
23 | C[C@@H]1CN(c2ccc3c(=O)c(C(=O)N[C@@H](C4CC4)C(F)(F)F)cn(-c4c(F)cc(F)cc4F)c3n2)C(=O)O1 [Example 444, N-[(1S)-1-Cyclopropyl-2,2,2-trifluoroethyl]-7-[(5R)-5-methyl-2-oxo-1,3-oxazolidin-3-yl]-4-oxo-1-(2,4,6-trifluorophenyl)-1,4-dihydro-1,8-naphthyridine-3-carboxamide] | – | 51 nM | 100% | –
24 | O=C(NCc1c(Cl)cccc1Cl)c1cn(-c2ccc(F)cc2F)c2nc(N3CCCS3(=O)=O)ccc2c1=O [Example 182, N-(2,6-Dichlorobenzyl)-1-(2,4-difluorophenyl)-7-(1,1-dioxido-1,2-thiazolidin-2-yl)-4-oxo-1,4-dihydro-1,8-naphthyridine-3-carboxamide] | – | – | – | 182 nM
25 | CC(C)C(NC(=O)c1cn(-c2ccc(F)cc2F)c2nc(N3CC[C@H](F)C3)ccc2c1=O)C(F)(F)F (stereo partly drawn) [Example 69, 1-(2,4-Difluorophenyl)-7-[(3S)-3-fluoropyrrolidin-1-yl]-4-oxo-N-[1,1,1-trifluoro-3-methylbutan-2-yl]-1,4-dihydro-1,8-naphthyridine-3-carboxamide] | – | – | – | 13 nM

Reference: patent US20190367516A1 (Bayer Pharma Aktiengesellschaft, priority 2015, published 2019)
